{
  "source": "patent USRE48461E1",
  "about": "“Modulation of androgen receptor expression” (Ionis Pharmaceuticals, Inc., priority 2012, dated 2021)",
  "key": {"[1]": {"conditions": "cynomolgus monkey, in vivo, sc, 40 mg/kg"}, "[2]": {"conditions": "cynomolgus monkey, in vivo, sc, 40 mg/kg", "remark": "listed apart in the source"}, "[3]": {"conditions": "cynomolgus monkey, in vivo, sc, 40 mg/kg", "remark": "listed apart in the source", "experimental": "Prior to the study, the monkeys were kept in quarantine for a 30-day period, during which the animals were observed daily for general health. The monkeys were 2-4 years old and weighed between 2 and 4 kg. Thirteen groups of four randomly assigned male cynomolgus monkeys each were injected subcutaneously with ISIS oligonucleotide or PBS. PBS solution or ISIS oligonucleotides, at a dose of 40 mg/kg, were administered with a loading regimen consisting of four doses on the first week of the study (days 1, 3, 5, and 7), followed by a maintenance regimen consisting of once weekly administration starting on Day 14 (weeks 2 to 6). Subcutaneous injections were performed in clock-wise rotations at 4 sites on the back; one site per dose. The injection sites were delineated by tattoo, while sedated using ketamine, and were separated by a minimum of 3 cm.\nTo evaluate any effect of ISIS oligonucleotides in cynomolgus monkeys on hematologic parameters, blood samples of approximately 0.5 mL of blood was collected day 44 from each of the available study animals in tubes containing K2-EDTA. Samples were analyzed for red blood cell (RBC) count, white blood cells (WBC) count, platelet count, hemoglobin content and hematocrit, using an ADVIA2120i hematology analyzer (SIEMENS, USA)."}, "[4]": {"conditions": "cynomolgus monkey, in vivo, sc, 40 mg/kg", "remark": "listed apart in the source"}, "[5]": {"conditions": "cynomolgus monkey, in vivo, sc, 40 mg/kg", "remark": "listed apart in the source"}, "[6]": {"conditions": "cynomolgus monkey, in vivo, sc, 40 mg/kg", "remark": "listed apart in the source", "experimental": "The monkeys were 2-4 years old and weighed between 2 and 4 kg. Thirteen groups of four randomly assigned male cynomolgus monkeys each were injected subcutaneously with ISIS oligonucleotide or PBS. PBS solution or ISIS oligonucleotides, at a dose of 40 mg/kg, were administered with a loading regimen consisting of four doses on the first week of the study (days 1, 3, 5, and 7), followed by a maintenance regimen consisting of once weekly administration starting on Day 14 (weeks 2 to 6). Subcutaneous injections were performed in clock-wise rotations at 4 sites on the back; one site per dose. The injection sites were delineated by tattoo, while sedated using ketamine, and were separated by a minimum of 3 cm.\nTo evaluate any inflammatory effect of ISIS oligonucleotides in cynomolgus monkeys, the monkeys were fasted overnight. Approximately, 1.5 mL of blood samples were collected from all the study groups on day 44. Blood was collected in tubes without anticoagulant for serum separation. The tubes were kept at room temperature for a minimum of 90 min and then centrifuged at 3,000 rpm for 10 min. C-reactive protein (CRP), which is synthesized in the liver and which serves as a marker of inflammation, was measured on day 43 using a Toshiba 120FR NEO chemistry analyzer (Toshiba Co., Japan). Complement C3 was also measured similarly, and the data is presented as a percentage of baseline values."}, "AR mRNA [7]": {"tested_on": "AR mRNA", "assay": "Antisense inhibition of human AR in HuVEC cells, single concentration (electroporation, qRT-PCR RTS3559)", "assay_type": "cell-based", "conditions": "500 nM ASO, electroporation, ~24 h, Table 2", "how_it_was_run": "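HuVEC cells electroporated with antisense oligonucleotides at a single concentration. AR mRNA quantified by qRT-PCR using human primer-probe set RTS3559 and normalised to total RNA content by RIBOGREEN.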"}, "AR mRNA [8]": {"tested_on": "AR mRNA", "assay": "Dose-dependent antisense inhibition of human AR in HuVEC cells (electroporation, qRT-PCR RTS3559, IC50)", "assay_type": "cell-based", "conditions": "HuVEC, ~16 h, Table 4", "how_it_was_run": "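HuVEC cells dosed with antisense oligonucleotides by electroporation and treated approximately 16 hours. AR mRNA quantified by real-time qPCR with primer probe set RTS3559 and normalised to total RNA by RIBOGREEN; IC50 from dose-response.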"}, "total AR mRNA": {"tested_on": "total AR mRNA", "assay": "Total (full-length) AR mRNA in C4-2B MR cells, free uptake", "assay_type": "cell-based, human", "conditions": "free uptake, 24 hrs", "description": "Cells were plated at a density of 40,000 cells per well in 96-well plates and cultured in RPMI1640 medium with 10% fetal bovine serum. […] ISIS 549372, ISIS 549458, ISIS 549434, and ISIS 554221 were each added at 0.04 μM, 0.20 μM, 1.00 μM, and 5.00 μM concentrations of antisense oligonucleotide to culture media for free uptake by the cells. […] After a treatment period of 24 hrs, total AR mRNA levels were measured by quantitative real-time PCR using primer probe set RTS3559."}, "KLK3 mRNA": {"tested_on": "KLK3 mRNA", "assay": "KLK3 mRNA (AR target gene) in C4-2B MR cells", "assay_type": "cell-based, human"}, "KLK2 mRNA": {"tested_on": "KLK2 mRNA", "assay": "KLK2 mRNA (AR target gene) in C4-2B MR cells", "assay_type": "cell-based, human"}, "C4-2B MR cells": {"tested_on": "C4-2B MR cells", "assay": "Proliferation of MDV3100-resistant C4-2B cells (CellTiter 96)", "assay_type": "cell-based, human", "conditions": "6 days", "description": "ISIS 549372, ISIS 549434, ISIS 549458, and ISIS 554221 were each added to the culture media at 0.04 μM, 0.20 μM, 1.00 μM, and 5.00 μM concentration of antisense oligonucleotide. ISIS 347526 was included as a negative control. After a treatment period of 6 days, the proliferative capacity of the cancer cells was measured with using CellTiter 96® AQueous One Solution Cell Proliferation kit (Promega), following the manufacturer's instructions. Results are presented in Table 41 as percent inhibition of proliferation, relative to non-treated cells."}},
  "note": "Oligonucleotides are written 5' to 3', each unit as a sugar letter and its base; * is a phosphorothioate linkage, no mark a phosphodiester; rarer units and linkages stand in square brackets, end groups in braces. Plain capitals give the bases only. k = constrained ethyl (cEt); [5mC] = 5-methylcytosine; d = 2'-deoxy (DNA)",
  "data": [
    {"substance": "GATTTAATGGTTGCAA (cEt gapmer chemistry, further chemistry not given here) [ISIS 586124]", "values": [
      {"measurement": "Body Wt", "setting": "[1]", "result": 2.5, "unit": "kg"},
      {"measurement": "Heart weight", "setting": "[1]", "result": 9.4, "unit": "g"},
      {"measurement": "Kidney weight", "setting": "[1]", "result": 14, "unit": "g"},
      {"measurement": "Liver weight", "setting": "[1]", "result": 58, "unit": "g"},
      {"measurement": "Mesenteric lymph nodes weight", "setting": "[1]", "result": 2.8, "unit": "g"},
      {"measurement": "Spleen weight", "setting": "[1]", "result": 3.3, "unit": "g"},
      {"measurement": "ALT", "setting": "[2]", "result": 56, "unit": "IU/L"},
      {"measurement": "AST", "setting": "[2]", "result": 94, "unit": "IU/L"},
      {"measurement": "Albumin", "setting": "[2]", "result": 3.9, "unit": "g/dL"},
      {"measurement": "HCT", "setting": "[3]", "result": 45, "unit": "%"},
      {"measurement": "Hemoglobin", "setting": "[3]", "result": 13.6, "unit": "g/dL"},
      {"measurement": "Platelets", "setting": "[3]", "result": 391000, "unit": "µL"},
      {"measurement": "RBC", "setting": "[3]", "result": "5.8e+06", "unit": "µL"},
      {"measurement": "WBC", "setting": "[3]", "result": 10400, "unit": "µL"},
      {"measurement": "Plasma BUN", "setting": "[4]", "result": 23.8, "unit": "mg/dL"},
      {"measurement": "Plasma Creatinine", "setting": "[4]", "result": 0.87, "unit": "mg/dL"},
      {"measurement": "Urine protein/creatinine ratio", "setting": "[5]", "result": 0.01},
      {"measurement": "C3 (% of baseline)", "setting": "[6]", "result": "93 % of baseline"},
      {"measurement": "CRP", "setting": "[6]", "result": 4.0, "unit": "mg/dL"}
    ]},
    {"substance": "549434 (k[5mC]*kT*kA*dA*dA*d[5mC]*dT*dT*d[5mC]*d[5mC]*d[5mC]*dG*dT*kG*kG*k[5mC]) [compound 549434]", "values": [
      {"measurement": "% inhibition", "setting": "AR mRNA [7]", "result": 96, "unit": "%"},
      {"measurement": "percent inhibition of AR", "setting": "AR mRNA [8]; 55.6 nM", "result": 38, "unit": "%"},
      {"measurement": "percent inhibition of AR", "setting": "AR mRNA [8]; 166.7 nM", "result": 60, "unit": "%"},
      {"measurement": "percent inhibition of AR", "setting": "AR mRNA [8]; 500.0 nM", "result": 86, "unit": "%"},
      {"measurement": "percent inhibition of AR", "setting": "AR mRNA [8]; 1500.0 nM", "result": 96, "unit": "%"},
      {"measurement": "IC50", "setting": "AR mRNA [8]", "result": 85, "unit": "nM"},
      {"measurement": "Percent inhibition of full-length AR mRNA in C4-2B MR cells", "setting": "total AR mRNA; 0.04 μM", "result": 9, "unit": "%"},
      {"measurement": "Percent inhibition of full-length AR mRNA in C4-2B MR cells", "setting": "total AR mRNA; 0.20 μM", "result": 36, "unit": "%"},
      {"measurement": "Percent inhibition of full-length AR mRNA in C4-2B MR cells", "setting": "total AR mRNA; 1.00 μM", "result": 66, "unit": "%"},
      {"measurement": "Percent inhibition of full-length AR mRNA in C4-2B MR cells", "setting": "total AR mRNA; 5.00 μM", "result": 88, "unit": "%"},
      {"measurement": "Percent inhibition of KLK3 mRNA in C4-2B MR cells", "setting": "KLK3 mRNA; 0.04 μM", "result": 10, "unit": "%"},
      {"measurement": "Percent inhibition of KLK3 mRNA in C4-2B MR cells", "setting": "KLK3 mRNA; 0.20 μM", "result": 47, "unit": "%"},
      {"measurement": "Percent inhibition of KLK3 mRNA in C4-2B MR cells", "setting": "KLK3 mRNA; 1.00 μM", "result": 42, "unit": "%"},
      {"measurement": "Percent inhibition of KLK3 mRNA in C4-2B MR cells", "setting": "KLK3 mRNA; 5.00 μM", "result": 64, "unit": "%"},
      {"measurement": "Percent inhibition of KLK2 mRNA in C4-2B MR cells", "setting": "KLK2 mRNA; 0.04 μM", "result": 5, "unit": "%"},
      {"measurement": "Percent inhibition of KLK2 mRNA in C4-2B MR cells", "setting": "KLK2 mRNA; 0.20 μM", "result": 27, "unit": "%"},
      {"measurement": "Percent inhibition of KLK2 mRNA in C4-2B MR cells", "setting": "KLK2 mRNA; 1.00 μM", "result": 49, "unit": "%"},
      {"measurement": "Percent inhibition of KLK2 mRNA in C4-2B MR cells", "setting": "KLK2 mRNA; 5.00 μM", "result": 68, "unit": "%"},
      {"measurement": "Percent inhibition of C4-2B MR cell proliferation", "setting": "C4-2B MR cells; 0.04 μM", "result": 0, "unit": "%"},
      {"measurement": "Percent inhibition of C4-2B MR cell proliferation", "setting": "C4-2B MR cells; 0.20 μM", "result": 0, "unit": "%"},
      {"measurement": "Percent inhibition of C4-2B MR cell proliferation", "setting": "C4-2B MR cells; 1.00 μM", "result": 21, "unit": "%"},
      {"measurement": "Percent inhibition of C4-2B MR cell proliferation", "setting": "C4-2B MR cells; 5.00 μM", "result": 22, "unit": "%"}
    ]}
  ]
}
